Assay results taken from patent EP0087858A1, “New chromanone compounds and pharmaceutical compositions containing them” (priority 1982, dated 1983).

Assays:
Acute toxicity = settings: mouse, in vivo, male dd mice, deaths up to 72 hours
Description: Groups of 10 male dd mice weighing some 18 g were orally or intraperitoneally administered the examined drugs and the number of death up to 72 hours later was recorded.
An example of results is shown in Table 1: the drugs are those numbered correspondingly above. Administration is oral (p.o.) or intraperitoneal (i.p.)

dd mice = assay: Analgesic effects by a modified Haffner method; type: in vivo; settings: 2 mg/kg morphine hydrochloride s.c. 30 minutes later, tail squeeze
Description: Groups of 10 dd mice were orally administered the examined drugs and 30 minutes later 2 mg/kg of morphine hydrochloride, the threshold dose, was injected subcutaneously. At 15, 30, 45 and 60 minutes thereafter, the root of mouse's tail was squeezed with a Kocher's forceps.

male dd mice = assay: Analgesic effects by acetic acid writhing test; type: in vivo; settings: inhibition rate of stretching after 0.6% acetic acid i.p.
Description: 30 minutes after the examined drugs were given orally, 0.1 ml/10 g of 0.6% acetic acid solution was intraperitoneally administered to groups of 10 male dd mice weighing some 18 g. The number of stretching was calculated during an observation period of 15 to 20 minutes after acetic acid treatment. The average inhibition rate of stretching among 8 animals was regarded as the inhibition rate of the drug, excluding 2 animals showing maximum and minimum number of stretching.

[1] = test system: plantaroedema induced by carrageenin; assay: Inhibition of plantaroedema induced by carrageenin; type: in vivo; settings: rats, 60 minutes before 0.1 ml of 1% carrageenin into the sole
Description: 60 minutes after the drugs had been orally administered to groups of rats, 0.1 ml of 1% carrageenin solution was injected subcutaneously into the sole. The rate of increase in volume of the hind food compared with volume before carrageenin treatment was regarded as oedema rate.

[2] = test system: stomach and intestinal tracts; parameters: species or system rats; settings: rat, in vivo, po
[3] = test system: gastric irritation/ulceration; assay: Gastric irritation; type: in vivo; settings: rats, 8 hours after dosing, aspirin (150 mg/kg) or indomethacin (40 mg/kg) taken as 100%
Description: 8 hours after the examined drugs were orally administered to groups of rats, degree of gastric irritation/ulceration produced by the drug is compared with that produced by aspirin (150 mg/kg) or indomethacin (40 mg/kg). Percentage rate of production of gastric irritation, compared with the control drug, (that produced by aspirin or indomethacin was taken as 100%), was regarded as the gastric irritation rate.

Structure (SMILES): CC(C(=O)O)c1cc(Cl)c2c(c1)C(=O)CCO2 (stereo not drawn) [Compound 5, 2-(8-chloro-4-chromanon-6-yl)propionic acid]
- mortality at 72 h (Acute toxicity; po, 400 mg/kg p.o.): 0%
- mortality at 72 h (Acute toxicity; po, 800 mg/kg p.o.): 0%
- analgesic effect (%) (dd mice; 50 mg/kg orally): 20%
- analgesic effect (%) (dd mice; 100 mg/kg orally): 45%

Structure (SMILES): CC1(C)CC(=O)c2cc(CC(=O)O)ccc2O1 [Compound 2, (2,2-dimethyl-4-chromanon-6-yl) acetic acid]
- mortality at 72 h (Acute toxicity; po, 600 mg/kg p.o.): 0%
- analgesic effect (%) (male dd mice; 50 mg/kg orally): 13%
- analgesic effect (%) (male dd mice; 100 mg/kg orally): 62%
- oedema rate (%) ([1]; 100 mg/kg orally): 46%

Structure (SMILES): CCCCC1C(=O)N(c2ccccc2)N(c2ccccc2)C1=O [Phenylbutazone, reference compound]
- findings in sections of the stomach and intestinal tracts [2]: mucosal disorder or ulcer formation
- mortality at 72 h (Acute toxicity; po, 400 mg/kg p.o.): 30%
- oedema rate (%) ([1]; 50 mg/kg orally): 33%
- oedema rate (%) ([1]; 100 mg/kg orally): 50%

Structure (SMILES): CC(C)Cc1ccc(C(C)C(=O)O)cc1 (stereo not drawn) [Ibuprofen, reference compound]
- oedema rate (%) ([1]; 100 mg/kg orally): 54%

Structure (SMILES): CC(C(=O)O)c1cc(Cl)c2c(c1)C(=O)CC(C)(C)O2 (stereo not drawn) [Compound 3, 2-(8-chloro-2,2-dimethyl-4-chromanon-6-yl)propionic acid]
- mortality at 72 h (Acute toxicity; po, 400 mg/kg p.o.): 0%
- analgesic effect (%) (dd mice; 50 mg/kg orally): 20%
- analgesic effect (%) (dd mice; 100 mg/kg orally): 25%
- analgesic effect (%) (male dd mice; 50 mg/kg orally): 27%
- analgesic effect (%) (male dd mice; 100 mg/kg orally): 59%
- oedema rate (%) ([1]; 100 mg/kg orally): 48%

Structure (SMILES): CC(C(=O)O)c1ccc2c(c1)C(=O)CC(C)(C)O2 (stereo not drawn) [Compound 4, 2-(2,2-dimethyl-4-chromanon-6-yl)propionic acid]
- mortality at 72 h (Acute toxicity; ip, 200 mg/kg i.p.): 0%
- mortality at 72 h (Acute toxicity; po, 300 mg/kg p.o.): 0%
- gastric irritation rate(%) ([3]; 50 mg/kg orally): 8%
- oedema rate (%) ([1]; 50 mg/kg orally): 48%

Structure (SMILES): CC(C(=O)O)c1ccc2c(c1)C(=O)C(C)(C)O2 (stereo not drawn) [Compound 6, 2-(2,2-dimethyl-2,3-dihydrobenzofuran-3-one-5-yl)propionic acid]
- mortality at 72 h (Acute toxicity; ip, 200 mg/kg i.p.): 0%
- mortality at 72 h (Acute toxicity; po, 300 mg/kg p.o.): 0%
- analgesic effect (%) (dd mice; 50 mg/kg orally): 20%
- analgesic effect (%) (dd mice; 100 mg/kg orally): 40%
- gastric irritation rate(%) ([3]; 100 mg/kg orally): 25%
- oedema rate (%) ([1]; 50 mg/kg orally): 34%
- oedema rate (%) ([1]; 100 mg/kg orally): 53%

Structure (SMILES): O=C(O)Cc1ccc2c(c1)C(=O)CCO2 [Compound 1, (4-chromanon-6-yl) acetic acid]
- analgesic effect (%) (dd mice; 50 mg/kg orally): 15%
- analgesic effect (%) (dd mice; 100 mg/kg orally): 30%
- analgesic effect (%) (male dd mice; 50 mg/kg orally): 31%
- analgesic effect (%) (male dd mice; 100 mg/kg orally): 45%

Structure (SMILES): Cc1c(N(C)C)c(=O)n(-c2ccccc2)n1C [Aminopyrine, reference compound]
- mortality at 72 h (Acute toxicity; po, 600 mg/kg p.o.): 20%
- analgesic effect (%) (dd mice; 50 mg/kg orally): 20%
- analgesic effect (%) (dd mice; 100 mg/kg orally): 35%
- analgesic effect (%) (male dd mice; 50 mg/kg orally): 17%
- analgesic effect (%) (male dd mice; 100 mg/kg orally): 57%
